The source of these data is ChEMBL document CHEMBL3886540, “Orally available viridiofungin derivative possessing anti-HCV activity” (2016).

Series [1] addresses T1, Cytochrome P450 2C9 (Homo sapiens, UniProt P11712). The series is described as follows: (§1) CYP Inhibition Assay (With Preincubation): With Preincubation: To a 96 deep well plate was added 2.5 uL of the test substance solution (x200 concentration), and 442.5 uL of Incubation Mixture, and the solution was mixed and warmed to 37° C. for 5 minutes. To this incubation solution 50 uL of 10 mM NADPH was added and preincubated at 37° C. for 30 minutes. […] After the reaction, 100 uL of the Incubation Mixture was removed, added to 150 uL of isopropanol containing IS and mixed. […] The filtrate was used for LC-MS/MS analysis.

Series [2] addresses T2, Cytochrome P450 3A4 (Homo sapiens, UniProt P08684). The description is as §1.
Series [3] deals with T1, Cytochrome P450 2C9. The series is described as follows: (§2) CYP Inhibition Assay (Without Preincubation): Without Preincubation: To a 96 deep well plate was added 2.5 uL, of the test substance solution (x200 concentration), 442.5 uL of Incubation Mixture, and 5 uL of the substrate solution, and the solution was mixed and warmed to 37° C. for 5 minutes. To this incubation solution 50 uL of 10 mM NADPH was added to start the reaction, and incubated at 37° C. for 5 minutes. After the incubation, 100 uL of the Incubation Mixture was removed, added to 150 uL of isopropanol containing IS and mixed. […] The filtrate was used for LC-MS/MS analysis.

Series [4] deals with T2, Cytochrome P450 3A4. Described as §2.

Each structure is given as a SMILES string.

T1 sequence (P11712 whole entry): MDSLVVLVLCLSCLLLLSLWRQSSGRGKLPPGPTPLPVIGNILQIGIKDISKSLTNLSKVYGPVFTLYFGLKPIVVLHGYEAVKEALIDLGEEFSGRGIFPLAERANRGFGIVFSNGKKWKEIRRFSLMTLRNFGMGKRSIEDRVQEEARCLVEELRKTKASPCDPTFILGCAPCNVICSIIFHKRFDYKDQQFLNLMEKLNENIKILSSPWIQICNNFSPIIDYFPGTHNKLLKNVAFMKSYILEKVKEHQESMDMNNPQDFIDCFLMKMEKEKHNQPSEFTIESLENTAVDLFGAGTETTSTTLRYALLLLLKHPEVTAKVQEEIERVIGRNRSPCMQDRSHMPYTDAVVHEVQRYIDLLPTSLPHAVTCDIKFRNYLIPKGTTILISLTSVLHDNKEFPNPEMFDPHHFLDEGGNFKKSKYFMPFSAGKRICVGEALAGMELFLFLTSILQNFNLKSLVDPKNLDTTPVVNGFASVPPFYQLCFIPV
T2 sequence (P08684 whole entry): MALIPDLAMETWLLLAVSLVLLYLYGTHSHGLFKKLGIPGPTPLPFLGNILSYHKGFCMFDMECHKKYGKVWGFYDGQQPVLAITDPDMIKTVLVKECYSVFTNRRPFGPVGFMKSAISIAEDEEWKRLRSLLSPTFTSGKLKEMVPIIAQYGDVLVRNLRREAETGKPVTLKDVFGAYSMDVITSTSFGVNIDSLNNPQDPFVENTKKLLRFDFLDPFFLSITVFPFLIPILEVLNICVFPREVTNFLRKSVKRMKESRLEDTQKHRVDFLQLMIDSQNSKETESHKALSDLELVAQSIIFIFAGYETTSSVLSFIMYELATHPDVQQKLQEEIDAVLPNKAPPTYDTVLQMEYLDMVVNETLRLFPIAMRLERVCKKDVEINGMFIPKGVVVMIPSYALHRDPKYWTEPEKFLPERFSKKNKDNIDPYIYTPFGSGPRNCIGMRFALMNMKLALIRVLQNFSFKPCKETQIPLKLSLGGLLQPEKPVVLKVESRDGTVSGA

Take `CCCCCCCC(F)(F)CCCCCC/C=C/[C@H](C(O)N[C@@H](Cc1ccc(OCCCC)cc1)C(=O)O)[C@@](O)(CCOC)C(=O)O` (stereo partly drawn): the IC50 amounted to 24.4 µM at Cytochrome P450 2C9 [1], 11.8 µM at Cytochrome P450 3A4 [2], 12.5 µM on Cytochrome P450 2C9 [3] and 16.2 µM on Cytochrome P450 3A4 [4].
In the same order, the values of `CCCCCCCC(F)(F)CCCCCC/C=C/[C@H](C(O)N[C@@H](Cc1ccc(OCCCC)cc1)C(=O)OC)[C@@](O)(CCOC)C(=O)O` (stereo partly drawn) are 19.6 µM, 11.9 µM, 7.7 µM and 23.8 µM.
